One may read the EC50 as the concentration giving half of the maximal effect. One may read the IC50 as the point on the concentration scale where inhibition reaches its midpoint. For orientation: half-life means the time in which the quantity being followed falls by half. A higher half-life goes with slow loss.

Where two headings read alike, the source gives them in different places.

Data set [1] relates to HIV-1 (IIIB) in MT-4 cells. Description: microbe, parasite or virus in culture. Type of data set: cell-based. As to conditions: HIV-1, read-out: MT4 EC50.
A further data set concerns the target recombinant HIV protease (Human immunodeficiency virus type 1 group M subtype B (isolate HXB2) (HIV-1), UniProt P04585). Nature of the data set: biochemical. The data set is classed as biochemical. The protocol:
HIV Protease Enzyme Inhibition (PI) Activity
Inhibitor potency against HIV protease was measured using an enzymatic assay with a fluorogenic readout. To a reaction buffer containing 100 mM ammonium acetate at pH 5.3, 100 mM NaCl, 1 mM EDTA, 1 mM DTT, 0.25 mg/mL BSA and 1% DMSO were added 10 nM of recombinant HIV protease (concentration based on protein monomer) and test compound at one of various concentrations. […] The total volume of the assay solution was 100 μL. […] The slopes of the progress curves were the measure of reaction rates. Reaction rates were plotted as a function of inhibitor concentration, and the data were fit with a four-parameter logistic fit using Graphpad PRISM software to yield IC50 values.

The nature of data set [2]: Liver microsomal stability, human liver microsomes. As to conditions: for half-life at 1 uM: human, liver microsomes. The protocol:
Liver Microsomal Stability Protocol
Test compounds and one control compound (verapamil) were tested in 3 different species in duplicate sets.
Test compound concentration: 1 uM; Protein concentration: 0.5 mg/mL (for dog, rat, and human liver microsomes); Cofactor: NADPH-Regenerating system (NRS) solution; Time-points: 2, 12, 25, 45, and 65 minutes.
Reaction Composition (in Each Incubation Well) Contains:
At an incubation temperature of 37° C., the reaction was started with addition of NADPH Regeneration System, at each time point, 25 uL of the reaction mixture was removed and added to a plate with 225 uL quenching solution (50% MeOH, 25% ACN, 25% H2O, and 200 nM labetalol as internal standard). After plates were vortexed, they were centrifuged for 30 minutes to remove proteins. About 100 μL supernatant was removed to a new plate and diluted with 150 μL water. About 20 μL of the mixture was injected into LC/MS/MS system to monitor the compound's response. In vitro measured t1/2 was used to calculate Clint values.
On the technique in general: Microsomes from liver hold many membrane-bound enzymes, among them those of drug oxidation.

For the next data set, the target named is recombinant human BACE-1 (Homo sapiens (Human), UniProt P56817). Nature of the data set: Beta-secretase (BACE) inhibition assay, fluorogenic enzymatic assay. Type of data set: biochemical. The protocol: Beta-Secretase (BACE) Inhibition Assay
Inhibitory potency against β-secretase (BACE) was measured using an enzymatic assay with a fluorogenic readout. 50 nM of recombinant human BACE-1 (R&D Systems) and test compound at one of various concentrations were added to a reaction buffer containing 20 mM sodium acetate at pH 4.8, with 0.06% Triton X-100, and 1% DMSO. […] The total volume of the assay solution was 100 μL. […] The slopes of the progress curves were the measure of reaction rates. Reaction rates were plotted as a function of inhibitor concentration, and the data were fit with a four-parameter logistic fit using Graphpad PRISM software to yield IC50 values.

Data set [3] deals with single replication cycle recombinant virus containing the protease and reverse transcriptase coding regions of HIV-1 from a patient blood sample. Type of data set: cell-based. From the text: Resistance testing was done by Monogram Biosciences using their proprietary PhenoSense HIV assay.
The mark [4] stands for this setting: recombinant HIV protease, fluorogenic enzymatic assay, read-out: HIV PI IC50.
Where [5] appears, read: Human immunodeficiency virus 1, IIIB, MT4, MT-4 cells.

Sequence of recombinant human BACE-1 (P56817 46-501): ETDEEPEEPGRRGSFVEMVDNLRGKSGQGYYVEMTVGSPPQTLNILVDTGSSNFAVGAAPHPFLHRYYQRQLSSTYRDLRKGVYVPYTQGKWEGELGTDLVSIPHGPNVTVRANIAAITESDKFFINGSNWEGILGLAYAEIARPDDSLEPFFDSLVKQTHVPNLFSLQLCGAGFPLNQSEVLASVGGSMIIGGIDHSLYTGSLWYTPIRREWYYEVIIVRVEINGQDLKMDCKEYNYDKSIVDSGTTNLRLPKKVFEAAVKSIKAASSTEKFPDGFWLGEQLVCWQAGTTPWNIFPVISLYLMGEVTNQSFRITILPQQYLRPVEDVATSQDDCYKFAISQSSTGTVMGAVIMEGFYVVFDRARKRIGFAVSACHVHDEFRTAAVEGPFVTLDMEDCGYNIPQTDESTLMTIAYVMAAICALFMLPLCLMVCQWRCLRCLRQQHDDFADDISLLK

As to `CC(C)(C)C[C@]1(c2ccc(-c3cnn(C4CC4)c3)cc2)NC(=N)N([C@H](COC(=O)NC2(C(F)(F)F)CC2)c2ccc(Cl)c(-c3ncnn3C(F)F)c2)C1=O` [Compound 164], in data set [1] (MT-4 cells), the EC50 is 16.5 nM. Further, the half-inhibitory concentration (IC50) on recombinant HIV protease (setting [4]) was determined as 2.6 nM.

As for `CC(C)(C)C[C@]1(c2ccc(-c3ccn(C4CC4)n3)cc2)NC(=N)N([C@H](COC(=O)NC2(C(F)(F)F)CC2)c2ccc(Cl)c(-n3ncnc3C(F)F)c2)C1=O` [Compound 214], the EC50 in data set [1] (setting [5]) amounted to 11.5 nM. Further, at recombinant HIV protease, the IC50 amounted to 3 nM.

In the case of `CC(C)(C)C[C@]1(c2ccc(-c3cnn(C(F)F)c3)cc2)NC(=N)N([C@H](COC(=O)NC2(C(F)(F)F)CC2)c2ccc(Cl)c(-n3cncn3)c2)C1=O` [Compound 236], the EC50 in data set [1] (setting [5]) was 10.6 nM. In addition, the half-life at 1 uM in data set [2] is at least 6.58 h. Further, the concentration for half-maximal inhibition (IC50) on recombinant human BACE-1 is over 100000 nM.

In the case of `CC(C)(C)C[C@]1(c2ccc(-c3cnn(C(F)F)c3)cc2)NC(=N)N([C@H](COC(=O)NC(C)(C)C(F)(F)F)c2ccc(Cl)c(-n3cncn3)c2)C1=O` [Compound 242], the EC50 in data set [1] (setting [5]) stood at 6.83 nM. Further, in data set [2], the half-life at 1 uM was at least 6.58 h. In addition, on recombinant human BACE-1, the 50% inhibitory concentration (IC50) is over 100000 nM.

`CC(C)(C[C@]1(c2ccc(-c3cnn(C4CC4)n3)cc2)NC(=N)N([C@H](COC(=O)NC2(C(F)(F)F)CC2)c2ccc(Cl)c(-n3ncnc3C(F)F)c2)C1=O)C(F)(F)F` [Compound 270]: the EC50 in data set [1] (setting [5]) was 19.1 nM. This compound had a half-life at 1 uM in data set [2] of at least 6.58 h. For the same compound, the IC50 on recombinant human BACE-1 was over 100000 nM.

As to `C[C@H](NC(=O)OC[C@H](c1ccc(Cl)c(-n2ncnc2C(F)F)c1)N1C(=N)N[C@](CC(C)(C)C)(c2ccc(-c3cnn(C(F)F)c3)cc2)C1=O)C(F)(F)F` [Compound 311], the EC50 in data set [1] (setting [5]) turned out to be 7.01 nM. The compound also showed a half-life at 1 uM in data set [2] of at least 6.58 h. Further, the concentration for half-maximal inhibition (IC50) at recombinant human BACE-1 was over 100000 nM.

On to `CC(C)(C)C[C@]1(c2ccc(-c3cnn(C(F)F)c3)cc2)NC(=N)N([C@H](COC(=O)NC2(C(F)(F)F)CC2)c2ccc(F)c(-n3ncnc3C(F)F)c2)C1=O` [Compound 380], for which the EC50 in data set [1] (MT-4 cells) stood at 29.2 nM. The “Half-life in human liver microsomes” value in data set [2] (human liver microsomes 0.5 mg/mL, 1 uM compound, NADPH-regenerating system, 37° C.) is at least 6.58 h. For the same compound, the IC50 at recombinant HIV protease (setting [4]) is 3.5 nM.

In the case of `C[C@H](C(=O)NC[C@H](c1ccc(Cl)c(-n2ncnc2C(F)F)c1)N1C(=N)N[C@](CC(C)(C)C(F)(F)F)(c2ccc(-c3cnn(C4CC4)n3)cc2)C1=O)C(F)(F)F` [Compound 389], the EC50 in data set [1] (setting [5]) is 12.2 nM. The compound also yielded a half-life at 1 uM in data set [2] of at least 6.58 h. At recombinant human BACE-1, the IC50 was over 100000 nM.

As to `COC(=O)N[C@H](C(=O)N[C@@H](Cc1ccccc1)[C@@H](O)CN(Cc1ccc(-c2ccccn2)cc1)NC(=O)[C@@H](NC(=O)OC)C(C)(C)C)C(C)(C)C` [atazanavir, methyl N-[(2S)-1-[2-[(2S,3S)-2-hydroxy-3-[[(2S)-2-(methoxycarbonylamino)-3,3-dimethylbutanoyl]amino]-4-phenylbutyl]-2-[(4-pyridin-2-ylphenyl)methyl]hydrazinyl]-3,3-dimethyl-1-oxobutan-2-yl]carbamate], the half-life at 1 uM in data set [2] was in the range of 0.433 to 1.78 h. Further, the “Fold change in EC50” value was 5.27 in data set [3] (Resistance mutations D30N L33F N88D L90M); 30.0 in data set [3] (Resistance mutations L10F M46I I47V I50V I54V G73S I84V L90M); over 101 in data set [3] (Resistance mutations L10F M46L I54V V82A I84V); 5.67 in data set [3] (Resistance mutations L10F V32I M46I I47V I50V I54L I84V); 87.0 in data set [3] (Resistance mutations L10I L33F G48V I50L I54V/I V82A); over 101 in data set [3] (Resistance mutations L10I L33F/L G48V G73S V82A). For the same compound, the “Fold change in EC50” value in data set [3] (Resistance mutations L10I M46I I50V) is on record as 1.99; in data set [3] (Resistance mutations L10I V32I L33F M46L I54L I84V L89V), 97.0; in data set [3] (Resistance mutations L10I V32I M46I I47V G48V I54M V82T L90M) it was 11.0; in data set [3] (Resistance mutations L10I V32I M46I I47V I50V I54L L90M), 36.0; in data set [3] (Resistance mutations L10V/L M46I I50L V82A) it was over 101; in data set [3] (Resistance mutations L33F M46I I50V L76V) it was 1.91.

The values are drawn from patent publication US10774053B2, “HIV protease inhibitors” (Gilead Sciences, Inc., priority 2017, dated 2020).
